For series [1] the following is noted: cynomolgus monkey, in vivo.
Description: Following European recommendations, 2 five-year-old healthy female cynomolgus macaques, 3–4 kg, were housed under conventional conditions in the animal facility. […] Animals were acclimatized to laboratory conditions and trained to breathe an aerosol with a facemask spontaneously. Aerosol generated from 3 ml of 0.9% NaCl mixed with 74 MBq of DTPA radiolabeled with technetium 99m (^99mTc-DTPA) was administered through a facemask connected to the prototype mesh nebulizers, as used in MeV infection experiments (Fig. 2a). Deposition of aerosol was extrapolated based on the ^99mTc-DTPA signal measured at the end of the nebulization using a gamma camera (Orbiter 75 Ecam, Siemens healthcare, Erlangen, Germany)[68]. The nebulizer charge was measured by counting the radioactivity in the syringe (that contained ^99mTc-DTPA) before and after loading the nebulizers. Immediately after aerosol delivery, the animals were imaged using the gamma camera. The post-anterior static scintigraphy acquisition was performed for 120s. The amount of ^99mTc-DTPA deposited into airways and stomach and remaining in the nebulizer was determined from the digitalized images taking into account the tissue attenuation coefficients, previously determined by perfusion scintigraphy (intravenous injection of ^99mTc-macroagregates of albumin). […]
The subject of series [2] is MeV. As to conditions: cell culture and organotypic brain cultures; cited from earlier work.
Series [3] has as its system MeV. The series can be described thus: Plaque reduction assay on Vero-hSLAM cells. The conditions noted are these: prototype mesh nebulizer. (In general: Plaque reduction counts the foci of infection that form in a cell layer.)
A short description of series [4]: Laser diffraction and nebulizer performance of aerosol from prototype mesh nebulizer. It is filed as physicochemical. As to conditions: 3 ml of 4 mg/ml, mean + SD of four devices. How it is done:
The aerodynamic performances of the aerosols generated by the prototype mesh nebulizer were determined by laser diffraction using a Spraytec™ instrument (Malvern Instruments Ltd., Malvern, UK) and the Spraytec inhalation cell (Malvern Instruments Ltd., Malvern, UK) connected to an aspiration carried out by a vacuum pump set to 30–50L/min [69]. The prototype mesh nebulizers (n=4) were loaded with 3 ml of either NaCl 0.9% or the HCR4 peptide (4 mg/ml, dissolved as described above) and then connected to the inhalation cell. Nebulization duration was notified at the end of the complete aerosolization of the loaded 3 ml. Diffraction data and volume distribution were automatically registered by the Spraytec software.
The output of nebulizer was determined by the difference between the weight of the nebulizer before and after nebulization and was expressed in percentage of the loaded volume. The output rate of each nebulizer (in ml/min) was then determined as the ratio between the output and the nebulization duration. At least, the residual volume corresponding to the volume of liquid remaining in the reservoir at the end of the nebulization was also determined by weighting the nebulizer before loading it and after nebulization.
25 Table S1. […]
28 1 VMD for Volume Median Diameter, presents the mean size of generated aerosols, measured by […]

For series [5], the system named is MeV. As to conditions: intranasal administration, cited from earlier work. From the text:
MeV uses several receptors to infect target cells. […] Infection is initiat ...

The test system of series [6] is MeV IC323-eGFP. Put plainly: Nebulized peptide in MeV-infected cynomolgus macaques. As to conditions: absence of fluorescent rash, PBMC infection, viremia, viral shedding, MeV-specific immune response.
Excerpt: To assess antiviral efficacy of nebulized HRC4 peptide in NHPs, groups of 3 animals were infected with 10^4 PFU MeV IC323-eGFP by intra-tracheal inoculation, and either mock-treated with nebulized saline solution (C1, C2, and C3) or treated with nebulized HRC4 peptide (P1, P2, and P3) twenty-four and six hours before infection and twenty-four hours after infection (Fig. 6a). The NHPs were housed in cages accommodating two animals per cage for ethical reasons, so that one cage contained one peptide-treated and one saline-nebulized macaque.
(a) Experimental design: cynomolgus monkeys (3 animals/group) were either nebulized with 3 ml of NaCl 0.9% (control group, C) or with 3 ml HRC4 peptide 4 mg/ml (experimental group, P), 24 h and 6 h before and 24 h after intra-tracheal infection with 10^4 PFU MeV IC323 eGFP. Blood samples were taken every 3 days for the first 16 days and fluorescence of the skin and mucosa tested at that time points. (b) Macroscopic manifestation of MeV infection, typical fluorescent rash observed on tongue, skin (back and chin) and palate (marked with white arrows), monitored under anesthesia using a blue light with orange filter. […] (d) Analysis of viremia by quantification of the percentage of GFP^+ peripheral blood mononuclear cells (PBMC) in the blood by flow cytometry and MeV-specific RNA in PBMCs and in throat swabs by RT-qPCR, during the course of infection. […]
Series [7] can be described thus: Solubility of peptide for nebulization. It is filed as physicochemical. As to conditions: dissolved in filtered Milli-Q water to 4 mg/ml, pH adjusted to 7, HEPES buffer.
Series [8] relates to MeV IC323-eGFP. Put plainly: Serial viral passaging in presence of peptide, sequencing for escape variants. The conditions noted are these: 1μM peptide added after infection, 8 serial passages on Vero SLAM cells, 100 PFU per passage, sequencing of viral RNA.

As for `O=C([O-])CN(CCN(CC(=O)[O-])CC(=O)[O-])CCN(CC(=O)[O-])CC(=O)[O-].[99Tc+4]` [99mTC-DTPA, DTPA radiolabeled with technetium 99m], in series [1], the “Deposition in macaque, Lungs” value is 11.4 +/- 3.1%.
As to `CC[C@H](C)[C@H](NC(=O)[C@H](C)NC(=O)[C@H](CC(N)=O)NC(=O)CNC(=O)[C@H](CC(C)C)NC(=O)[C@H](CC(N)=O)NC(=O)[C@@H](NC(=O)CNC(=O)[C@@H](NC(=O)[C@H](CC(=O)O)NC(=O)[C@H](CC(C)C)NC(=O)[C@H](CCCNC(=N)N)NC(=O)[C@H](CCC(=O)O)NC(=O)[C@H](CC(C)C)NC(=O)[C@H](CO)NC(=O)[C@@H](NC(=O)[C@@H]1CCCN1C(=O)[C@@H]1CCCN1)[C@@H](C)CC)C(C)C)[C@@H](C)O)C(=O)N[C@@H](C)C(=O)N[C@@H](CCCCN)C(=O)N[C@@H](CC(C)C)C(=O)N[C@@H](CCC(=O)O)C(=O)N[C@@H](CC(=O)O)C(=O)N[C@@H](C)C(=O)N[C@@H](CCCCN)C(=O)N[C@@H](CCC(=O)O)C(=O)N[C@@H](CC(C)C)C(=O)N[C@@H](CC(C)C)C(=O)N[C@@H](CCC(=O)O)C(=O)N[C@@H](CO)C(=O)N[C@@H](CO)C(=O)N[C@@H](CC(=O)O)C(=O)N[C@@H](CCC(N)=O)C(=O)N[C@H](C(=O)N[C@@H](CC(C)C)C(=O)N[C@@H](CCCNC(=N)N)C(=O)NCC(=O)N[C@@H](CO)C(=O)NCC(=O)N[C@@H](CO)C(=O)NCC(=O)N[C@@H](CSC1CC(=O)N(CCCC(=O)NCCOCCOCCOCCOCCC(=O)NCCN(CCNC(=O)CCOCCOCCOCCOCCNC(=O)CCCN2C(=O)CC(SC[C@H](NC(=O)CNC(=O)[C@H](CO)NC(=O)CNC(=O)[C@H](CO)NC(=O)CNC(=O)[C@H](CCCNC(=N)N)NC(=O)[C@H](CC(C)C)NC(=O)[C@@H](NC(=O)[C@H](CCC(N)=O)NC(=O)[C@H](CC(=O)O)NC(=O)[C@H](CO)NC(=O)[C@H](CO)NC(=O)[C@H](CCC(=O)O)NC(=O)[C@H](CC(C)C)NC(=O)[C@H](CC(C)C)NC(=O)[C@H](CCC(=O)O)NC(=O)[C@H](CCCCN)NC(=O)[C@H](C)NC(=O)[C@H](CC(=O)O)NC(=O)[C@H](CCC(=O)O)NC(=O)[C@H](CC(C)C)NC(=O)[C@H](CCCCN)NC(=O)[C@H](C)NC(=O)[C@@H](NC(=O)[C@H](C)NC(=O)[C@H](CC(N)=O)NC(=O)CNC(=O)[C@H](CC(C)C)NC(=O)[C@H](CC(N)=O)NC(=O)[C@@H](NC(=O)CNC(=O)[C@@H](NC(=O)[C@H](CC(=O)O)NC(=O)[C@H](CC(C)C)NC(=O)[C@H](CCCNC(=N)N)NC(=O)[C@H](CCC(=O)O)NC(=O)[C@H](CC(C)C)NC(=O)[C@H](CO)NC(=O)[C@@H](NC(=O)[C@@H]3CCCN3C(=O)[C@@H]3CCCN3)[C@@H](C)CC)C(C)C)[C@@H](C)O)[C@@H](C)CC)[C@@H](C)CC)C(=O)O)C2=O)CCO[C@H]2CC[C@@]3(C)C(=CC[C@H]4[C@@H]5CC[C@H]([C@H](C)CCCC(C)C)[C@@]5(C)CC[C@@H]43)C2)C1=O)C(=O)O)[C@@H](C)CC` (stereo partly shown) [HRC4], in series [2], the “Inhibition of the fusion process” value is on record as “inhibited the fusion process”. In series [3], the “Antiviral activity after versus before nebulization” value is listed as “did not cause any loss of activity”. Moreover, the VMD in series [4] (laser diffraction (Spraytec)) was determined as 4 μm. In series [4] (percentage of particles smaller than 5 µm), the “< 5µm” value is “Approximately 58%”. Besides, in series [5] (humanized transgenic mouse models of lethal measles disease), the Survival of mice entry is on record as “significant increase in survival of mice”. Moreover, in series [5], the “Viral titer in cotton rat lungs” value is recorded as “reduction of the viral titer in cotton rat lungs”. For the same compound, in series [6], the “Development of MeV infection” value is “abrogated the development of MeV infection in two out of three animals”. Moreover, the Solubility entry in series [7] is “soluble in water”. For the same compound, the “Mutations in MeV F after 8th passage” value in series [8] is “no mutations”.

These data come from paper PMC9176655, “Nebulized fusion inhibitory peptide protects cynomolgus macaques from measles virus infection” (Research Square, 2022).
